# Experimental data: patent US9670242B2, “Tetracyclic anthraquinone derivatives” (Tianjin Hemay Bio-Tech Co., Ltd, priority 2012, dated 2017)
# How the values were obtained:
# [1] = Solubility of the compound in water; type: physicochemical
# NCI-H446 cells = assay: NCI-H446 cell growth inhibition test (MTT assay); type: cell-based, human; settings: growth inhibition at 222 nM, 70 h
# Experimental: NCI-H446 Cell Growth Inhibition Test (MTT Assay)
# Cell strains: NCI-H446 (human small cell lung cancer cell strains); MTT; antitumor compounds; DMSO.
# (§1) II. Reagents and Consumable Materials
# (§2) Culture medium: 90% RPMI-1640+10% FBS; Pancreatin (0.25% (w/v) solution was formulated with PBS, 0.53 mM of EDTA was added in the formulation); PBS; 96-well culture plate.
# (§3) 1. A plate (10 cm) of cells in logarithmic growth phase that were normally cultured was collected;
# (§4) 2. The culture solution was sucked out. The plate was washed with 5 mL of PBS once or twice;
# (§5) 3. PBS was sucked out. 1.5 mL of 0.25% pancreatin was added to infiltrate the cells;
# 4. The culture plate was placed in an incubator. Digestion was carried out for about 3 min at 37° C.;
# (§6) 5. 3 mL of complete culture solution was added to the culture plate to stop the digestion. The cells were carefully scoured with micropipette (1 ml) to give a uniform cell suspension. The suspension was implanted into a 96-well cell culture disc by 4000 cells/100 μL per well. The culture plate was incubated overnight under 5% CO2 at 37° C. In day 2, 100 μL of culture solution comprising a compound was added in each well. The plate was further incubated for 70 h under 5% CO2 at 37° C.;
# (§7) 6. The culture solution was sucked out;
# (§8) 7. 100 μL of serum-free culture solution containing 0.5 mg/mL MTT was added in each well. The plate was incubated for 3 h;
# (§9) 8. The culture solution was carefully sucked out;
# (§10) 9. 100 μL of DMSO was added into each well and vibrated to dissolve;
# (§11) 10. OD values were determined at 490 nM.
# (§12) IV. Results and Treatments
# (§13) 1. Calculation of Relative Inhibition Ratio The inhibition ratio of a compound on cell growth=(PC−n)/(PC−NC)×100%
# (§14) PC: OD values of cells after normal growth in control wells without a compound;
# (§15) n: OD values of cells after growth in test wells with a compound;
# (§16) NC: Background OD values of blank wells without a compound and cells.
# MDA-MB-453 cells = assay: MDA-MB-453 cell growth inhibition test (SRB assay); type: cell-based, human; settings: growth inhibition at 2000 nM, 69.5 h
# Experimental: MDA-MB-453 Cell Growth Inhibition Test (SRB Assay)
# Cell strains: MDA-MB-453 (human breast cancer cell strains); SRB: 0.4% (w/v) working solution was formulated with 1% glacial acetic acid, reserved at 4° C.; antitumor compounds; DMSO.
# as §1
# Culture medium: 90% L15+10% FBS; pancreatin (0.25% (w/v) solution was formulated with PBS, 0.53 mM of EDTA was added in the formulation); PBS; 96-well culture plate.
# as §3, §4
# (§17) 3. 1.5 mL of 0.25% pancreatin was added to the plate to infiltrate the cells;
# (§18) 4. The pancreatin was sucked out. The culture plate was placed in an incubator. Digestion was carried out for about 3 min at 37° C.;
# as §6, with “5. 4” for “5. 3”, “uniform single” for “uniform”, “culture plate” for “culture disc”, “by 7000” for “by 4000”, “well.” for “well. The plate was further incubated for 70 h under 5% CO2 at 37° C.;”
# The plate was further incubated for 69.5 h under 5% CO2 at 37° C.;
# (§19) 6. The culture solution was sucked out. 100 uL of TCA fixed cells which were diluted to 10% were added to each well. The plate was kept in a refrigerator for 1 h at 4° C.
# (§20) 7. TCA stationary liquid was sucked out. Each well was washed with 150 μL of ddH2O five times;
# (§21) 8. After the stationary liquid was cleansed, the plate was dried in the air at the room temperature;
# (§22) 9. 60 μL of SRB staining solution was added in each well. The well was stained for 15 min at the room temperature;
# (§23) 10. The SRB staining solution was sucked out. Each well was washed with 150 μL of 1% glacial acetic acid five times;
# (§24) 11. After the SRB staining solution was cleansed, the plate was dried in the air at the room temperature;
# (§25) 12. 100 μL of 10 mM Tris was added in each well. The plate was vibrated to dissolve out SRB;
# (§26) 13. OD values were determined at 570 nM.
# as §12, §13, §14, §15, §16
# BxPc-3 cells = assay: BxPc-3 cell growth inhibition test (MTT assay); type: cell-based, human; settings: growth inhibition at 2000 nM, 70 h
# Experimental: BxPc-3 Cell Growth Inhibition Test (MTT Assay)
# Cell strains: BxPC-3 (human pancreatic cancer cell strains); MTT; antitumor compounds; DMSO.
# as §1, §2, §3, §4, §5
# 4. The culture plate was placed in an incubator. Digestion was carried out for about 8 min at 37° C.;
# as §6, with “5. 4.5” for “5. 3”, “by 5000” for “by 4000”
# as §7, §8, §9, §10, §11, §12, §13, §14, §15, §16
# 22Rv1 cells = assay: 22Rv1 cell growth inhibition test (SRB assay); type: cell-based, human; settings: growth inhibition at 222 nM, 73 h
# Experimental: 22Rv1 Cell Growth Inhibition Test (SRB Assay)
# Cell strains: 22Rv1 (human prostate cancer cell strains); SRB: 0.4% (w/v) working solution was formulated with 1% glacial acetic acid, reserved at 4° C.; antitumor compounds; DMSO.
# as §1, §2, §3, §4, §17, §18
# as §6, with “5. 4” for “5. 3”, “uniform single” for “uniform”, “culture plate” for “culture disc”, “by 7000” for “by 4000”, “for 73” for “for 70”
# as §19, §20, §21, §22, §23, §24, §25, §26, §12, §13, §14, §15, §16
# SK-OV-3 cells = assay: SK-OV-3 cell growth inhibition test (MTT assay); type: cell-based, human; settings: growth inhibition at 667 nM, 69 h
# Experimental: SK-OV-3 Cell Growth Inhibition Test (MTT Assay)
# Cell strains: SK-OV-3 (human ovarian cancer cell strains); MTT; antitumor compounds; DMSO.
# as §1
# Culture medium: 90% McCoy's 5A+10% FBS; Pancreatin (0.25% (w/v) solution was formulated with PBS, 0.53 mM of EDTA was added in the formulation); PBS; 96-well culture plate.
# as §3, §4, §5
# 4. The pancreatin was sucked out. The culture plate was placed in an incubator. Digestion was carried out for about 5 min at 37° C.;
# as §6, with “5. 4.5” for “5. 3”, “for 69” for “for 70”
# as §7, §8, §9
# 9. 100 μL of DMSO was added in each well and vibrated to dissolve;
# as §11, §12, §13, §14, §15, §16
Structure (SMILES),solubility of the compound in water [1],Inhibition Ratio (%) (NCI-H446 cells),Inhibition Ratio (%) (MDA-MB-453 cells),Inhibition Ratio (%) (BxPc-3 cells),Inhibition Ratio (%) (22Rv1 cells),Inhibition Ratio (%) (SK-OV-3 cells)
CC(=O)O.COc1cccc2c1C(=O)c1c(O)c3c(c(O)c1C2=O)CC(O)(C(=O)COC(=O)CCC(=O)NN1CCN(C)CC1)CC3O[C@H]1C[C@H](n2cccc2)[C@H](O)[C@H](C)O1 (stereo partly drawn) [Example 79],more than 5 mg/ml,,,,,
"CC(=O)O.COc1cccc2c1C(=O)c1c(O)c3c(c(O)c1C2=O)CC(O)(C(=O)COC(=O)CCC(=O)N1CCN(CCCN(C)C)CC1)CC3O[C@H]1C[C@H](n2cccc2)[C@H](O)[C@H](C)O1 (stereo partly drawn) [Example 87, 10-((3′-(pyrrol-1-yl)-2′,3′,6′-trideoxy-alphal-l-lyxo-hexylpyranyl)oxy)-7,8,9,10-tetrahydro-6,8,11-trihydroxy-13-oxo-14-(4-(4-(3-(dimethylamino)propyl)piperazin-1-yl)-4-oxo-butyrato)-1-methoxy-5,12-naphthalenedione acetate]",more than 16 mg/ml,,,,,
CC(=O)O.COc1cccc2c1C(=O)c1c(O)c3c(c(O)c1C2=O)CC(O)(C(=O)COC(=O)CCC(=O)NCCc1ccccn1)CC3O[C@H]1C[C@H](n2cccc2)[C@H](O)[C@H](C)O1 (stereo partly drawn) [Example 84],more than 12 mg/ml,,,,,
CC(=O)O.COc1cccc2c1C(=O)c1c(O)c3c(c(O)c1C2=O)CC(O)(C(=O)COC(=O)CCC(=O)NCc1cccnc1)CC3O[C@H]1C[C@H](n2cccc2)[C@H](O)[C@H](C)O1 (stereo partly drawn) [Example 83],more than 1 mg/ml,,,,,
"CC(=O)O.COc1cccc2c1C(=O)c1c(O)c3c(c(O)c1C2=O)CC(O)(C(=O)COC(=O)CCC(=O)NCCCN1CCOCC1)CC3O[C@H]1C[C@H](n2cccc2)[C@H](O)[C@H](C)O1 (stereo partly drawn) [Example 78, 10-((3′-(pyrrol-1-yl)-2′,3′,6′-trideoxy-alphal-l-lyxo-hexylpyranyl)oxy)-7,8,9,10-tetrahydro-6,8,11-trihydroxy-13-oxo-14-(4-((3-(morpholin-1-yl)propyl)amino)-4-oxo-butyrato)-1-methoxy-5,12-naphthalenedione acetate]",more than 22 mg/ml,,,,,
COc1cccc2c1C(=O)c1c(O)c3c(c(O)c1C2=O)CC(O)(C(=O)COC(=O)CCC(=O)NCc1cccnc1)CC3OC1CC(n2cccc2)C(O)C(C)O1 (stereo not drawn) [Example 28],,65.8,81.9,84.7,63.1,66.2
COc1cccc2c1C(=O)c1c(O)c3c(c(O)c1C2=O)CC(O)(C(=O)COC(=O)CCC(=O)N1CCN(CCCN(C)C)CC1)CC3OC1CC(n2cccc2)C(O)C(C)O1 (stereo not drawn) [Example 44],,46.3,68.5,78.5,48.5,52.3
CC(=O)O.COc1cccc2c1C(=O)c1c(O)c3c(c(O)c1C2=O)CC(O)(C(=O)COC(=O)CCC(=O)NCc1ccncc1)CC3O[C@H]1C[C@H](n2cccc2)[C@H](O)[C@H](C)O1 (stereo partly drawn) [Example 82],more than 6 mg/ml,,,,,
COc1cccc2c1C(=O)c1c(O)c3c(c(O)c1C2=O)CC(O)(C(=O)COC(=O)CCCC(=O)NCCc1ccccn1)CC3OC1CC(n2cccc2)C(O)C(C)O1 (stereo not drawn) [Example 35],,57.2,77.1,81.3,58.5,57.8
COc1cccc2c1C(=O)c1c(O)c3c(c(O)c1C2=O)CC(O)(C(=O)COC(=O)CCC(=O)NCCc1ccncc1)CC3OC1CC(n2cccc2)C(O)C(C)O1 (stereo not drawn) [Example 32],,59.3,78.3,83.4,61.7,59.7
COc1cccc2c1C(=O)c1c(O)c3c(c(O)c1C2=O)CC(O)(C(=O)COC(=O)CCC(N)=O)CC3OC1CC(n2cccc2)C(O)C(C)O1 (stereo not drawn) [Example 66],,56.2,73.9,83.1,59,66.5
COc1cccc2c1C(=O)c1c(O)c3c(c(O)c1C2=O)CC(O)(C(=O)COC(=O)CCC(=O)NCCc1ccccn1)CC3OC1CC(n2cccc2)C(O)C(C)O1 (stereo not drawn) [Example 34],,60.7,80.5,84,63.3,59.4
COc1cccc2c1C(=O)c1c(O)c3c(c(O)c1C2=O)CC(O)(C(=O)COC(=O)CCC(=O)NCCc1ccc(S(N)(=O)=O)cc1)CC3OC1CC(n2cccc2)C(O)C(C)O1 (stereo not drawn) [Example 38],,62.6,75.8,82.4,56.3,67.6
COc1cccc2c1C(=O)c1c(O)c3c(c(O)c1C2=O)CC(O)(C(=O)COC(=O)CCC(=O)N(CCO)CCO)CC3OC1CC(n2cccc2)C(O)C(C)O1 (stereo not drawn) [Example 64],,51.6,73.5,83.7,54.8,65.9
COc1cccc2c1C(=O)c1c(O)c3c(c(O)c1C2=O)CC(O)(C(=O)COC(=O)CCC(=O)NCCCN1CCOCC1)CC3OC1CC(n2cccc2)C(O)C(C)O1 (stereo not drawn) [Example 12],,54.6,73.7,74.9,53.3,48.8
